According to publication PMC11306024, “Novel metabolite madeirone and neomarinone extracted from Streptomyces aculeoletus as marine antibiofilm and antifouling agents” (Frontiers in Chemistry, 2024):

What was measured:
C. marina = assay: Antibiofilm activity (inhibition of biofilm formation); assay type: cell-based, Cobetia marina DSM 4741; conditions: for Biofilm inhibition, up to (highest over tested concentrations) C. marina: 0.98-31.25 µg/mL tested; for inhibition at 0.98 µg/mL / inhibition at 1.95 µg/mL / inhibition at 3.91 µg/mL / inhibition at 7.81 µg/mL / inhibition at 15.6 µg/mL / inhibition at 31.25 µg/mL: Cobetia marina, 24 h; for inhibition at 15.6 µg/mL: 15.60 µg/mL
Experimental: (§1) To assess antimicrofouling activity, we selected five marine bacterial species as models: Marinobacter hydrocarbonoclasticus DSM 8798 (ATCC 49840), C. marina DSM 4741, Phaeobacter inhibens DSM 17,395, Pseusooceanicola batsensis DSM 15,984, and Micrococcus luteus DSM 20030 (ATCC 4698) ([Michael et al., 2016]). These strains, sourced from DSMZ (Leibniz Institute DSMZ—German Collection of Microorganisms and Cell Cultures), were cultured in liquid marine broth (Carl Roth GmbH, Karlsruhe, Germany) with agitation at 180 rpm or on agar-supplemented marine broth. Incubation temperatures were set at 28°C for M. hydrocarbonoclasticus and Cobetia marina, 30°C for P. inhibens and P. batsensis, while M. luteus was maintained at 37°C in Brain Heart Infusion broth (BHI, Becton Dickinson, GmbH, Heidelberg, Germany) under similar agitation conditions.
The antibiofilm potential of compounds (1) and (2) against the five marine bacterial species was investigated in 96-well polystyrene flat-bottom microplates (Nunclon Delta Surface, Thermo Scientific, Roskilde, Denmark), as described previously ([Bauermeister et al., 2019]; [Pereira et al., 2020]). In the initial screening, bacterial overnight cultures were diluted to an OD600 of 0.2 and incubated statically at appropriate temperatures. The cultures were tested at 31.25, 15.60, 7.81, 3.91, 1.95, 0.98 μg/mL concentrations (2-fold serial dilutions) of compounds (1) and (2), solubilized in DMSO, or left untreated. After 24 h (M. hydrocarbonoclasticus, C. marina) or 48 h (P. batsensis, P. inhibens, M. luteus) incubation, OD600 was measured. The planktonic cells and media were discarded, and the wells were washed twice with deionized water. Biofilms were fixed, stained, and quantified by measuring the OD600 after solubilization with acetic acid. Biofilm inhibition percentages were calculated relative to untreated bacterial species, using DMSO as a negative control and CuSO4 (0.16 μg/mL), as a positive control. All assays were performed in triplicate, and the results represent the mean and standard error of the mean (SEM). Statistical analysis was conducted using GraphPad Prism 8.0.2, employing one-way ANOVA followed by Dunnett’s multiple comparisons test against the negative control.

Aliivibrio fischeri = assay: Inhibition of bioluminescence (ISO 11348-3 micro adaptation); assay type: cell-based; conditions: Aliivibrio fischeri
Experimental: The in vivo evaluation of compounds (1) and (2) for acute toxicity was performed towards marine bacterium Aliivibrio fischeri, and planktonic crustacean Daphnia magna. The chronic ecotoxicity tests were evaluated using algae Pseudokirchneriella subcapitata and Phaeodactylum tricornutum.
The inhibition of bioluminescence of the marine bacterium A. fischeri, were studied following a micro adaptation of the standard procedure ISO 11348-3 (“Water Quality-Determination of the inhibitory effect of water samples on the light emission of Vibrio fischeri - Luminescent bacteria test–using freeze-dried bacteria method”). Briefly, frozen lyophilized bacterial cells (Abraxis, Warminster, PA, United States) were reconstituted in Reconstitution Solution, supplied by the manufacturer of the Abratox kit (Abraxis). Madeirone (1) and neomarinone (2) were dissolved in DMSO and tested at the concentrations of 100, 50, 25, 12.5, 6.25, 3.13, and 1.56 μg/mL. The emitted luminescence was measured using a luminometer at time 0 min and at different exposure times (5, 15 and 30 min) and the percentage of inhibition of bioluminescence was determined. Each experiment was performed in duplicate and the results of three independent experiments with <10% SD are presented. Phenol was used as a positive control.

P. inhibens = assay: Antibacterial activity (growth inhibition, OD600); assay type: cell-based, Phaeobacter inhibens DSM 17395; conditions: 48 h
Experimental: as §1
The antibacterial efficacy of compounds (1) and (2) was assessed in 96-well polystyrene flat-bottom microplates (Nunclon Delta Surface, Thermo Scientific, Roskilde, Denmark) following established procedures ([Bauermeister et al., 2019]). In the initial screening, bacterial overnight cultures were diluted to an optical density (OD600nm) of 0.2 and incubated statically at appropriate temperatures. The cultures were treated with the following final concentrations per well: 31.25, 15.60, 7.81, 3.91, 1.95, and 0.98 μg/mL (2-fold serial dilutions) of the compounds, solubilized in DMSO, or left untreated. After 24 h (M. hydrocarbonoclasticus, C. marina) or 48 h (P. batsensis, P. inhibens, M. luteus) incubation, optical density at 600 nm (OD600) was measured using a Molecular Devices Spectra Max 190. Growth inhibition percentages were calculated relatively to untreated bacterial species, using DMSO as a negative control. CuSO4 (0.16 μg/mL), a recognized antifouling agent, was used as positive control. All assays were conducted in triplicate, and the results represent the mean and standard error of the mean (SEM). Statistical analysis was carried out using GraphPad Prism 8.0.2 (San Diego, CA, United States), employing one-way ANOVA followed by Dunnett’s multiple comparisons test against the negative control.

Row | SMILES | Biofilm inhibition, up to (highest over tested concentrations) C. marina (C. marina) | inhibition at 0.98 µg/mL (C. marina) | inhibition at 1.95 µg/mL (C. marina) | inhibition at 3.91 µg/mL (C. marina) | inhibition at 7.81 µg/mL (C. marina) | inhibition at 15.6 µg/mL (C. marina) | inhibition at 31.25 µg/mL (C. marina) | Inhibition (%) A. fischeri (bioluminescence) (Aliivibrio fischeri; 50 µg/mL) | Inhibition (%) A. fischeri (bioluminescence) (Aliivibrio fischeri; 100 µg/mL) | Growth inhibition (%) P. inhibens (P. inhibens; 0.98 µg/mL) | Growth inhibition (%) P. inhibens (P. inhibens; 1.95 µg/mL) | Growth inhibition (%) P. inhibens (P. inhibens; 3.91 µg/mL) | Growth inhibition (%) P. inhibens (P. inhibens; 7.81 µg/mL) | Growth inhibition (%) P. inhibens (P. inhibens; 15.60 µg/mL) | inhibition at 31.25 µg/mL (P. inhibens; Phaeobacter inhibens, 31.25 µg/mL) | Growth inhibition (%) P. inhibens (P. inhibens; 31.25 µg/mL)
1 | CC1=CCC[C@@H](C)[C@]1(C)CC[C@@]1(C)c2c(O)cc3c(c2O[C@@H]1C)C(=O)C=C(CO)C3=O (relative stereo) [compound 1, madeirone] | up to 40% | 28.6 ± 23.2% | 31.6 ± 15.3% | 36.3 ± 6.4% | 39.2 ± 5.4% | 41.7 ± 10% | 31 ± 9.6% | 15.1% | 49.2% | N.I. | N.I. | N.I. | N.I. | N.I. | 24.3 ± 0.5% | 
2 | CC1=CCC[C@@H](C)[C@]1(C)CC[C@@]1(C)c2c(O)cc3c(c2O[C@@H]1C)C(=O)C(C)=C(O)C3=O [compound 2, neomarinone] | ≤ 46% | 26.5 ± 3.8% | 24.5 ± 3% | 26.9 ± 3.3% | 34.4 ± 7.4% | 42.6 ± 6.3% | 45.8 ± 2.9% | 25.0% | 37.3% | N.I. | N.I. | N.I. | N.I. | N.I. |  | N.I.
